Test results published in patent publication US12060351B2, “Thiadiazole IRAK4 inhibitors” (Gilead Sciences, Inc., priority 2018, dated 2024).

How the values were obtained:
TNFα = test: IRAK4 Monocyte TNFα Cell Based Assay (LPS-stimulated, TR-FRET TNFα detection); design: species or system human; details: Homo sapiens, Monocyte, human monocytes, LPS-stimulated; Table 2 second part (compounds 33-343); read-out: EC50 MONO TNF HTRF
Method in brief: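 Monocytes (5,000 cells/well) treated with compound (0.1% DMSO) for 1 hour at 37° C, then stimulated with 50 pg/ml LPS for 4 hours. TNFα in medium quantified by TR-FRET two-antibody detection after overnight room-temperature incubation. Percent of control calculated against unstimulated (0%) and LPS-stimulated (100%) cells.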

IRAK4 enzyme = biological target: T1, IRAK4 enzyme (Homo sapiens, UniProt Q9NWZ3); test: IRAK4 Biochemical Assay (TR-FRET, STK1 KinEASE); details: 500 μM ATP, Table 2 second part (compounds 33-343), read-out: IC50 IRAK4-HTBS
T1 construct: purchased Carna Biosciences, Chuo-ku, Kobe, Japan
T1 sequence (Q9NWZ3 1-460): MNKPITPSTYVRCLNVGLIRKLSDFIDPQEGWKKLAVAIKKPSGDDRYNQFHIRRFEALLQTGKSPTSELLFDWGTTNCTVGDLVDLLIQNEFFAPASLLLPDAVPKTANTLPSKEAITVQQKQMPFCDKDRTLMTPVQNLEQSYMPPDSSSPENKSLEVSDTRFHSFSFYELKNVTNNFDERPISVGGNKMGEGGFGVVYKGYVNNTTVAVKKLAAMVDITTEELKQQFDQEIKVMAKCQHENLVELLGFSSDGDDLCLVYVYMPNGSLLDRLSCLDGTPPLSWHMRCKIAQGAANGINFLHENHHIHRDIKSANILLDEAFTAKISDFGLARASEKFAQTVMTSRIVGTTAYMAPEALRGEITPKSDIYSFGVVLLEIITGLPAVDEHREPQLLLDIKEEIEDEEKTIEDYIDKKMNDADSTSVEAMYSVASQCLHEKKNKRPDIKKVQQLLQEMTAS
Method in brief: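 Human IRAK4 (0.75 nM) preincubated 15 min with compound and 2 μM STK1 peptide, then reacted 120 min at room temperature with 500 μM ATP in HEPES pH 7.0 buffer with MgCl2 and DTT. EDTA stop with Cryptate anti-phosphopeptide antibody and tracer, 60 min; TR-FRET read as 665/615 nm ratio.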

Row | Structure (SMILES) | EC50 (TNFα) [nM] | IC50 (IRAK4 enzyme) [nM]
1 | N#Cc1cnn2c(-c3cc(NC4COC4)c(-c4nnc([C@H]5CC[C@@H](NC(=O)C6CC6)CC5)s4)cn3)ccc2c1 [Example 203, N-((1s,4s)-4-(5-(6-(3-cyanopyrrolo[1,2-b]pyridazin-7-yl)-4-(oxetan-3-ylamino)pyridin-3-yl)-1,3,4-thiadiazol-2-yl)cyclohexyl)cyclopropanecarboxamide] | 13.7 | 0.83
2 | CC(=O)N[C@@H]1[C@@H]2CC[C@H]1CN(c1nnc(-c3cnc(-c4ccc5cc(C#N)cnn45)cc3NC3(C)COC3)s1)C2 [Example 144, N-((1R,5S,8s)-3-(5-(6-(3-cyanopyrrolo[1,2-b]pyridazin-7-yl)-4-((3-methyloxetan-3-yl)amino)pyridin-3-yl)-1,3,4-thiadiazol-2-yl)-3-azabicyclo[3.2.1]octan-8-yl)acetamide] | 2.3 | 0.63
3 | CC(C)Nc1cc(-c2ccc3cc(C#N)cnn23)ncc1-c1nnc(N2C[C@H]3CC[C@@H](C2)[C@@H]3NC(=O)CN=S(C)(C)=O)s1 [Example 98, N-((1R,5S,8s)-3-(5-(6-(3-cyanopyrrolo[1,2-b]pyridazin-7-yl)-4-(isopropylamino)pyridin-3-yl)-1,3,4-thiadiazol-2-yl)-3-azabicyclo[3.2.1]octan-8-yl)-2-((dimethyl(oxo)-16-sulfanylidene)amino)acetamide] | 3.2 | 1.13

Other lines, results leading:

Row | EC50 (TNFα) [nM] | IC50 (IRAK4 enzyme) [nM] | Structure (SMILES)
4 | 131 | 1.39 | CC(C)Nc1cc(-c2ccc3cc(C#N)cnn23)ncc1-c1nnc(C(=O)N[C@H]2CC[C@H](O)CC2)s1 [Example 220, 5-(6-(3-cyanopyrrolo[1,2-b]pyridazin-7-yl)-4-(isopropylamino)pyridin-3-yl)-N-((1r,4r)-4-hydroxycyclohexyl)-1,3,4-thiadiazole-2-carboxamide]
5 | 4770 | 1.12 | CC(C)Nc1cc(-c2ccc3cc(C#N)cnn23)ncc1-c1nnc(C(=O)N[C@H]2CC[C@@H](O)CC2)s1 [Example 224, 5-(6-(3-cyanopyrrolo[1,2-b]pyridazin-7-yl)-4-(isopropylamino)pyridin-3-yl)-N-((1s,4s)-4-hydroxycyclohexyl)-1,3,4-thiadiazole-2-carboxamide]
6 | 2.1 | 0.8 | CC(C)Nc1cc(-c2ccc3cc(C#N)cnn23)ncc1-c1nnc(N2C[C@H]3CC[C@@H](C2)[C@@H]3NC(=O)C2CCN(C)CC2)s1 [Example 100, N-((1R,5S,8s)-3-(5-(6-(3-cyanopyrrolo[1,2-b]pyridazin-7-yl)-4-(isopropylamino)pyridin-3-yl)-1,3,4-thiadiazol-2-yl)-3-azabicyclo[3.2.1]octan-8-yl)-1-methylpiperidine-4-carboxamide]
